Source: US10258633B2, “Treatment of fibrosis using FXR ligands” (Intercept Pharmaceuticals, Inc., priority 2004, dated 2019)

Tests used:
[1] = tested on: hepatic stellate cells (HSC); test: HSC proliferation assay ([3H]-thymidine incorporation, cell counting); format: cell-based, rat
FXR = conditions: cell-free assay or cell-based transactivation assay using a human or rat FXR; cited from earlier work
[2] = tested on: hepatic stellate cells (HSC); test: Type I collagen α1 mRNA expression in HSCs by RT-PCR, quantitative RT-PCR and Northern blot; format: cell-based, rat; conditions: confirmed by Northern blot
Protocol: Primers: Rat SHP: [NT] (SEQ ID NO: 1) and [NT] (SEQ ID NO: 2); Rat FXR: [NT] (SEQ ID NO: 3) and [NT] […] (SEQ ID NO: 5) and [NT] (SEQ ID NO: 6); Rat c-Jun: [NT] (SEQ ID NO: 7) and 5' [NT] 3 (SEQ ID NO: 8)'; Rat JunD: [NT] (SEQ ID NO: 9) and [NT] […] (SEQ ID NO: 12). Levels of Collagen I alpha I were determined by Northern blot analyses of total RNA samples prepared from primary hepatic stellate cells (HSC), T6 and HepG2 cell lines. For this purpose, 10 μg total RNA was resolved by gel electrophoresis (1% agarose containing 0.98 M formaldehyde). Immediately after electrophoresis the RNA was transferred to a positively charged Nylon membrane (Amersham Life Sciences crop.). The transferred RNA was cross-linked to the membrane by UV light. The membrane was prehybridized for 4 hours in 6×SSC and 2% SDS and subsequently hybridized at 65° C. for 20 h with 32^P-labeled probes for collagen I alpha I or GAPDH (as internal control). Hybridized membranes were washed at a final stringency of 1×SSC, 1.0% SDS at 65° C. and exposed to Kodak AR-2 film at -80° C. The data are expressed relative to the internal GAPDH.

BDL rats = test: Liver fibrosis in bile duct ligated (BDL) rats; format: in vivo, rat; conditions: 1 and 3 mg/kg/day by oral route
Protocol: BDL is a model of chronic cholestasis. In this model, however, progressive liver fibrosis leads to the development of cirrhosis 3-4 weeks after ligation and it is therefore also used as a model of liver fibrosis (Kountouras et al., Br. J. Exp. Pathol., 65: 305-311, 1984). Because this model allows us to test the effect of anti-fibrotic remedies, we administered rats […] with 6ECDCA at the dose of 1 and 3 mg/kg per os per day for 2 weeks. The protocol's study was approved by the Animal Study Committee of the University of Perugia. Hepatic fibrosis was induced in 8-9 weeks old male Wistar rats (Charles River, Monza, Italy) by BDL. BDL was performed as originally described by Kountouras et al. (Br. J. Exp. Pathol. 65: 305-311; 1984). One week after BDL, rats were randomized to receive one of the following treatments, placebo (subcutaneous injection of 100 μL PBS) or 6ECDCA at the doses 1 and 3 mg/kg/day by oral route. Animals were then followed for 3 weeks.
At the end of the study surviving rats were sacrificed under pentobarbital sodium anesthesia (50 mg/kg i.p) and terminally bled via cardiac puncture. The blood was centrifuged at 7250 g for 20 minutes at 4° C.; the resultant serum was stored at −20° C. until analysis (a maximum of 2 weeks). At the time of death, the bile duct ligature was confirmed to be intact with proximal dilatation of the common bile duct. After weight determination, specimens of livers were snap frozen in liquid nitrogen and stored at −70° C. for subsequent analysis. For histologic examination portions of the right and left liver lobes (10-15 mg/each) from each animal were fixed in 10% formalin, embedded in paraffin, sectioned, and stained with hematoxylin and eosin or Sirius red. For Sirius red staining, the sections were incubated for 30 minutes in 0.1% Sirius red F3B (Sigma Chemical Co.) containing saturated picric acid and 0.1% Fast Green. After rinsing twice with distilled water, sections were briefly dehydrated with 70% ethanol and coverslipped. Collagen surface density from liver samples was quantified using a computerized image analysis system as described previously (Image Acquisition System Ver. 005, Delta Sistemi, Rome, Italy). The surface density of collagen in blinded specimens was measured at a video screen display magnification according to the method described by Rockey and Chung (Rockey, D. C., Chung, J. J. J. Clin. Invest. 98: 1381-1388, 1996) and expressed as a percent (the ratio of collagen surface area per total analyzed field surface). The average of the score taken from 10 random fields was used to generate a single score for each animal's liver.

[3] = tested on: hepatic stellate cells (HSC); test: Quantitative RT-PCR of FXR target genes (SHP, BSEP, NTCP, CYP7A1) in HSC

CC[C@H]1[C@@H](O)[C@@H]2[C@H](CC[C@]3(C)[C@@H]([C@H](C)CCC(=O)O)CC[C@@H]23)[C@@]2(C)CC[C@@H](O)C[C@@H]12 [6ECDCA]
expression of type I collagen (α1 mRNA) ([2]; 1 μM): reduces
liver collagen deposition by scoring of Sirius-red staining (BDL rats): significant reduction
liver hydroxyproline content (BDL rats): significant reduction
liver α1 mRNA by RT-PCR (BDL rats): significant reduction
reduction in liver collagen content, quantitative analysis of Sirius Red stained collagen (BDL rats): 62%
increase of BSEP mRNA ([3]; 6ECDCA 1 μM): 2 fold
increase of SHP mRNA ([3]; 6ECDCA 1 μM): 2 fold

C[C@H](CCC(=O)O)[C@H]1CC[C@H]2[C@@H]3[C@H](O)C[C@@H]4C[C@H](O)CC[C@]4(C)[C@H]3CC[C@]12C [CDCA, chenodeoxycholic acid, reference compound]
expression of type I collagen (α1 mRNA) ([2]; 20 μM): reduces
increase of BSEP mRNA ([3]; CDCA 20 μM): 2 fold
increase of SHP mRNA ([3]; CDCA 20 μM): 2 fold

CC(C)c1onc(-c2c(Cl)cccc2Cl)c1COc1ccc(/C=C/c2cccc(C(=O)O)c2)c(Cl)c1 [GW4064]
expression of type I collagen (α1 mRNA) ([2]; 100 μM): reduces
